Results taken from EPA's ToxValDB 9.5.
Several values for one entry are separate records, joined by “and”; a condition that tells them apart may be missing. Identical values can stand only once.

What was measured:
Rattus norvegicus [1] = conditions: oral
Rattus norvegicus [2] = conditions: repeat dose other; oral
Rattus norvegicus [3] = conditions: subchronic
Rattus norvegicus [4] = conditions: oral, gavage, Sprague-Dawley
Rattus norvegicus [5] = conditions: uterotrophic; duration: 3 days; injection; subcutaneous; Active
Danio rerio = conditions: whole body
Rattus norvegicus [6] = tested on: Rattus norvegicus
[7] = chronic, duration: 120 days, F, AB-type, E2 + E2:T ratio + gene expression
[8] = chronic, duration: 120 days, M/F, AB-type, fertilization rate + malformation rate + survival rate
[9] = chronic, duration: 120 days, M, AB-type, E2 + E2:T ratio + gene expression + liver: vtg1 expression + T
[10] = developmental, duration: 21 days, M/F, developmental lesion
[11] = short-term, duration: 28 days, F, VTG expression
[12] = short-term, duration: 28 days, F, thymus: Free T3
[13] = reproduction developmental, duration: 4 days, oral, gavage, F, Sprague-Dawley, generation: P0, P0: dam body weight gain
[14] = short-term, duration: 3 days, injection, subcutaneous, F, Sprague-Dawley, uterus: absolute blotted uterine weight in the presence of EE
[15] = short-term, duration: 10 days, oral, gavage, M, BrlHan:WIST, body weight + male accessory sex gland: BC/LA weight (relative)
[16] = short-term, duration: 10 days, oral, gavage, M, BrlHan:WIST, male accessory sex gland: glans penis weight (relative)
[17] = short-term, duration: 10 days, oral, gavage, M, BrlHan:WIST, male accessory sex gland: relative bulbourethral gland weight in the presence of TP + penis: relative penis weight in the absence of TP
[18] = short-term, duration: 14 days, oral, gavage, M, Sprague-Dawley, body weight + serum LH + serum TCHO
[19] = short-term, duration: 14 days, oral, gavage, M, Sprague-Dawley, serum FSH
[20] = short-term, duration: 14 days, oral, gavage, M, Sprague-Dawley, serum T + testis: testis/body weight
[21] = short-term, duration: 28 days, oral, gavage, F, Sprague-Dawley, body weight
[22] = short-term, duration: 28 days, oral, gavage, F, Sprague-Dawley, heart: heart weight + thymus: serum T4
[23] = short-term, duration: 28 days, oral, gavage, M, Sprague-Dawley, adrenal gland: hypertrophy of zona fasciculata + body weight + heart: heart weight + liver: decreased hepatocytic glycogen + liver: liver …

ClC=C(Cl)CCl [1,2,3-Trichloropropene]
NOAEL (Rattus norvegicus [1]; short-term, duration: 4 weeks, gavage, M/F, Crl:CD(SD), respiratory): 30 mg/kg-day

CC(=O)CC(C)C [4-Methyl-2-pentanone]
NOAEL (Rattus norvegicus [2]): 25 mg/kg-day | NOAEL (Rattus norvegicus [3]; duration: 13 weeks, oral, gavage, Kidney: Increased absolute weight in females + Kidney: Increased relative weight in females + Kidney: Increased urinary protein levels in …): 250 mg/kg-day | NOEL (Rattus norvegicus [3]; duration: 90 days, inhalation, intermittent, Kidney: Effects + Liver: Increased weight): 205 mg/m3

Cc1cc(N)ccc1N.O=S(=O)(O)O [p-Toluenediamine sulfate]
NOAEL (Rattus norvegicus [1]; subchronic, duration: 13 weeks, gavage, M, Sprague-Dawley): 2.5 mg/kg-day

Oc1ccc(C(c2ccc(O)cc2)(C(F)(F)F)C(F)(F)F)cc1 [Bisphenol AF]
NOEL (Rattus norvegicus [4]; subchronic, M, Clinical Observation: Salivation Perioral smudge + Body Weight Changes: Gain decrease + Food Consumption: decrease + Hematology: RBC …): < 30 mg/kg-day | LEL (Rattus norvegicus [5]): 4 mg/kg-day and 8 mg/kg-day and 4.04 mg/kg-day | LOEL (Danio rerio; [7]): 0.125 mg/L | NOEL (Danio rerio; [7]): 0.025 mg/L | LOEL (Danio rerio; [8]): 0.125 mg/L | NOEL (Danio rerio; [8]): 0.025 mg/L | LOEL (Danio rerio; chronic, duration: 120 days, M/F, AB-type, hatchability): 0.005 mg/L | LOEL (Danio rerio; [9]): 0.025 mg/L | NOEL (Danio rerio; [9]): 0.005 mg/L | LOEL (Danio rerio; [10]): 1.5 mg/L | NOEL (Danio rerio; [10]): 1 mg/L | LOEL (Danio rerio; short-term, duration: 21 days, M/F, vitellogenin): 0.5 mg/L | LOEL (Danio rerio; [11]): 0.25 mg/L | NOEL (Danio rerio; [11]): 0.05 mg/L | LOEL (Danio rerio; short-term, duration: 28 days, F, condition factor): 0.05 mg/L | LOEL (Danio rerio; [12]): 1 mg/L | NOEL (Danio rerio; [12]): 0.25 mg/L | LOEL (Danio rerio; short-term, duration: 28 days, M, 17beta-estradiol + VTG expression): 1 mg/L | NOEL (Danio rerio; short-term, duration: 28 days, M, VTG expression): 0.25 mg/L | NOEL (Danio rerio; short-term, duration: 28 days, M, body weight + length): 0.05 mg/L | LOEL (Danio rerio; short-term, duration: 28 days, M, body weight + length + T): 0.25 mg/L | LOEL (Rattus norvegicus [6]; [13]): 400 mg/kg-day | NOEL (Rattus norvegicus [6]; [13]): 300 mg/kg-day | NOEL (Rattus norvegicus [6]; short-term, duration: 3 days, injection, subcutaneous, F, Crj:CD, body weight): 100 mg/kg-day | LOEL (Rattus norvegicus [6]; short-term, duration: 3 days, injection, subcutaneous, F, Crj:CD, uterus: uterine dry weight (absolute) + uterus: uterine dry weight (relative)): 8 mg/kg-day | NOEL (Rattus norvegicus [6]; short-term, duration: 3 days, injection, subcutaneous, F, Sprague-Dawley, body weight in the absence of EE + body weight in the presence of EE): 100 mg/kg-day | LOEL (Rattus norvegicus [6]; short-term, duration: 3 days, injection, subcutaneous, F, Sprague-Dawley, uterus: absolute blotted uterine weight in the absence of EE + uterus: relative blotted uterine weight in the absence of EE + uterus: …): 4 mg/kg-day | LOEL (Rattus norvegicus [6]; [14]): 20 mg/kg-day | NOEL (Rattus norvegicus [6]; [14]): 4 mg/kg-day | LOEL (Rattus norvegicus [6]; [15]): 200 mg/kg-day | NOEL (Rattus norvegicus [6]; [15]): 50 mg/kg-day | NOEL (Rattus norvegicus [6]; short-term, duration: 10 days, oral, gavage, M, BrlHan:WIST, male accessory sex gland: Cowper's gland weight (relative) + male accessory sex gland: seminal vesicle weight (relative) + male accessory …): 600 mg/kg-day | LOEL (Rattus norvegicus [6]; [16]): 600 mg/kg-day | NOEL (Rattus norvegicus [6]; [16]): 200 mg/kg-day | NOEL (Rattus norvegicus [6]; short-term, duration: 10 days, oral, gavage, M, BrlHan:WIST, male accessory sex gland: relative bulbourethral gland weight in the absence of TP + male accessory sex gland: relative seminal vesicle …): 600 mg/kg-day | LOEL (Rattus norvegicus [6]; [17]): 600 mg/kg-day | NOEL (Rattus norvegicus [6]; [17]): 200 mg/kg-day | LOEL (Rattus norvegicus [6]; short-term, duration: 10 days, oral, gavage, M, BrlHan:WIST, male accessory sex gland: relative seminal vesicle weight in the presence of TP + penis: relative penis weight in the presence of TP): 50 mg/kg-day | LOEL (Rattus norvegicus [6]; [18]): 50 mg/kg-day | NOEL (Rattus norvegicus [6]; [18]): 10 mg/kg-day | LOEL (Rattus norvegicus [6]; [19]): 10 mg/kg-day | NOEL (Rattus norvegicus [6]; [19]): 2 mg/kg-day | LOEL (Rattus norvegicus [6]; [20]): 200 mg/kg-day | NOEL (Rattus norvegicus [6]; [20]): 50 mg/kg-day | NOEL (Rattus norvegicus [6]; short-term, duration: 14 days, oral, gavage, M, Sprague-Dawley, testis: testis weight): 200 mg/kg-day | NOEL (Rattus norvegicus [6]; short-term, duration: 28 days, oral, gavage, F, Sprague-Dawley, adrenal gland: hypertrophy of zona fasciculata + bone marrow: decreased hematopoiesis + brain: brain weight + liver: decreased hepatocytic …): 100 mg/kg-day | LOEL (Rattus norvegicus [6]; [21]): 30 mg/kg-day | NOEL (Rattus norvegicus [6]; [21]): 10 mg/kg-day | LOEL (Rattus norvegicus [6]; [22]): 100 mg/kg-day | NOEL (Rattus norvegicus [6]; [22]): 30 mg/kg-day | NOEL (Rattus norvegicus [6]; short-term, duration: 28 days, oral, gavage, M, Sprague-Dawley, adrenal gland: adrenals weight + bone marrow: decreased hematopoiesis + brain: brain weight + spleen: decreased extramedullary hematopoiesis…): 100 mg/kg-day | LOEL (Rattus norvegicus [6]; [23]): 100 mg/kg-day | NOEL (Rattus norvegicus [6]; [23]): 30 mg/kg-day

[O-2].[Zn+2] [Zinc oxide]
LOAEL (Rattus norvegicus [2]): 320 mg/kg-day | NOAEL (Rattus norvegicus [2]): 160 mg/kg-day

Nc1cccc([N+](=O)[O-])c1 [3-Nitroaniline]
LOAEL (Rattus norvegicus [1]; short-term, duration: 28 days, gavage, M/F, Fischer 344): 15 mg/kg-day

CCN(C=O)CC [Diethylformamide]
NOAEL (Rattus norvegicus [1]; chronic, duration: 73 weeks, gavage, M, Wistar, Whole Body Effects): 1.1 mg/kg-day

c1ccc(Nc2ccc(Nc3ccccc3)cc2)cc1 [N,N'-Diphenyl-p-phenylenediamine]
NOEL (Rattus norvegicus [4]; short-term, duration: 28 days): 1000 mg/kg-day | NOAEL (Rattus norvegicus [1]; reproduction developmental, diet, F, Sprague-Dawley): 0.3 mg/kg-day
